In patent US10750743B2, “Pyridazinone herbicides” (E.I. DU PONT DE NEMOURS AND COMPANY, priority 2015, dated 2020):

Legend:
Type in all cases: in vivo
kochia (Kochia scoparia) [1] = assay: Test A postemergence application, visual injury rating; conditions: 0 to 100 scale, 0 no effect, 100 complete control
How it was run: (§1)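 Compounds in a surfactant-containing solvent were applied as a directed soil spray preemergence, or postemergence to plants 2-10 cm tall at the one- to two-leaf stage, in loam-sand blend. After about 10 d in the greenhouse, injury was rated visually against untreated controls on a 0-100 scale (100 = complete control).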

[2] = tested on: wheat (Triticum aestivum); assay: as above; conditions: 0 to 100 scale, 0 no effect, 100 complete control
How it was run: as §1

[3] = tested on: pigweed (Amaranthus retroflexus); assay: as above; conditions: 0 to 100 scale, 0 no effect, 100 complete control
How it was run: as §1

[4] = tested on: blackgrass (Alopecurus myosuroides); assay: as above; conditions: 0 to 100 scale, 0 no effect, 100 complete control
How it was run: as §1

[5] = tested on: barnyardgrass (Echinochloa crus-galli); assay: as above; conditions: 0 to 100 scale, 0 no effect, 100 complete control
How it was run: as §1

[6] = tested on: galium (catchweed bedstraw, Galium aparine); assay: as above; conditions: 0 to 100 scale, 0 no effect, 100 complete control
How it was run: as §1

corn (Zea mays) = assay: as above; conditions: 0 to 100 scale, 0 no effect, 100 complete control
How it was run: as §1

[7] = tested on: foxtail, giant (giant foxtail, Setaria faberii); assay: as above; conditions: 0 to 100 scale, 0 no effect, 100 complete control
How it was run: as §1

[8] = tested on: ragweed (common ragweed, Ambrosia elatior); assay: as above; conditions: 0 to 100 scale, 0 no effect, 100 complete control
How it was run: as §1

[9] = tested on: ryegrass, It. (Italian ryegrass, Lolium multiflorum); assay: as above; conditions: 0 to 100 scale, 0 no effect, 100 complete control
How it was run: as §1

kochia (Kochia scoparia) [10] = assay: Test A preemergence, directed soil spray, visual injury rating; conditions: 0 is no effect, 100 is complete control
How it was run: as §1

[11] = tested on: pigweed (Amaranthus retroflexus); assay: as above; conditions: 0 is no effect, 100 is complete control
How it was run: as §1

[12] = tested on: barnyardgrass (Echinochloa crus-galli); assay: as above; conditions: 0 is no effect, 100 is complete control
How it was run: as §1

[13] = tested on: foxtail, giant (giant foxtail, Setaria faberii); assay: as above; conditions: 0 is no effect, 100 is complete control
How it was run: as §1

[14] = tested on: ragweed (common ragweed, Ambrosia elatior); assay: as above; conditions: 0 is no effect, 100 is complete control
How it was run: as §1

[15] = tested on: ryegrass, It. (Italian ryegrass, Lolium multiflorum); assay: as above; conditions: 0 is no effect, 100 is complete control
How it was run: as §1

[16] = tested on: sedge, umbrella (small-flower umbrella sedge, Cyperus difformis); assay: Test B flooded paddy test, visual rating; conditions: Flood, 250 g ai/ha, applied to paddy water, rated after 13 to 15 d
How it was run: (§2)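 Plants grown to the 2-leaf stage. At treatment, pots were flooded to 3 cm above the soil, compound was applied directly to the paddy water, and that depth was held throughout. After 13 to 15 d in the greenhouse, response was rated visually against controls on a 0 (no effect) to 100 (complete control) scale.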

rice (Oryza sativa) = assay: Test B flooded paddy test, visual rating; conditions: Flood, 250 g ai/ha, applied to paddy water, rated after 13 to 15 d
How it was run: as §2

[17] = tested on: ducksalad (Heteranthera limosa); assay: Test B flooded paddy test, visual rating; conditions: Flood, 250 g ai/ha, applied to paddy water, rated after 13 to 15 d
How it was run: as §2

[18] = tested on: barnyardgrass (Echinochloa crus-galli); assay: Test B flooded paddy test, visual rating; conditions: Flood, 250 g ai/ha, applied to paddy water, rated after 13 to 15 d
How it was run: as §2

Row | SMILES | Kochia plant response rating (kochia (Kochia scoparia) [1]; 125 g ai/ha) | Wheat plant response rating ([2]; 125 g ai/ha) | Pigweed plant response rating ([3]; 125 g ai/ha) | Blackgrass plant response rating ([4]; 125 g ai/ha) | Barnyardgrass plant response rating ([5]; 125 g ai/ha) | Galium plant response rating ([6]; 125 g ai/ha) | Corn plant response rating (corn (Zea mays); 125 g ai/ha) | Foxtail, Giant plant response rating ([7]; 125 g ai/ha) | Ragweed plant response rating ([8]; 125 g ai/ha) | Ryegrass, It. plant response rating ([9]; 125 g ai/ha) | Plant response rating (0 to 100 scale), Kochia (kochia (Kochia scoparia) [10]; 125 g ai/ha) | Plant response rating (0 to 100 scale), Pigweed ([11]; 125 g ai/ha) | Plant response rating (0 to 100 scale), Barnyardgrass ([12]; 125 g ai/ha) | Plant response rating (0 to 100 scale), Foxtail, Giant ([13]; 125 g ai/ha) | Plant response rating (0 to 100 scale), Ragweed ([14]; 125 g ai/ha) | Plant response rating (0 to 100 scale), Ryegrass, It. ([15]; 125 g ai/ha) | Sedge, Umbrella plant response rating (0 to 100 scale, 0 is no effect, 100 is complete control) [16] | Rice plant response rating (0 to 100 scale, 0 is no effect, 100 is complete control) (rice (Oryza sativa)) | Ducksalad plant response rating (0 to 100 scale, 0 is no effect, 100 is complete control) [17] | Barnyardgrass plant response rating (0 to 100 scale, 0 is no effect, 100 is complete control) [18] | other results
1 | Cc1nc2c(-c3c(O)c(C)nn(C)c3=O)cccc2s1 [Compound 27] | 0 | 0 | 0 | 0 | 0 | 0 | 0 | 20 | 0 | 20 | 0 | 0 | 0 | 0 | 20 | 30 | 0 | 0 | 0 | 0 | Kochia plant response rating (kochia (Kochia scoparia) [1]; 500 g ai/ha): 0; Wheat plant response rating ([2]; 500 g ai/ha): 0; Pigweed plant response rating ([3]; 500 g ai/ha): 0; Blackgrass plant response rating ([4]; 500 g ai/ha): 30; Barnyardgrass plant response rating ([5]; 500 g ai/ha): 20; Galium plant response rating ([6]; 500 g ai/ha): 60; Corn plant response rating (corn (Zea mays); 500 g ai/ha): 0; Foxtail, Giant plant response rating ([7]; 500 g ai/ha): 40; Ragweed plant response rating ([8]; 500 g ai/ha): 30; Ryegrass, It. plant response rating ([9]; 500 g ai/ha): 40; Plant response rating (0 to 100 scale), Kochia (kochia (Kochia scoparia) [10]; 500 g ai/ha): 0; Plant response rating (0 to 100 scale), Pigweed ([11]; 500 g ai/ha): 0; Plant response rating (0 to 100 scale), Barnyardgrass ([12]; 500 g ai/ha): 0; Plant response rating (0 to 100 scale), Foxtail, Giant ([13]; 500 g ai/ha): 50; Plant response rating (0 to 100 scale), Ragweed ([14]; 500 g ai/ha): 20; Plant response rating (0 to 100 scale), Ryegrass, It. ([15]; 500 g ai/ha): 40
2 | COC(=O)Oc1c(C)nn(C)c(=O)c1-c1cccc2cc(C)oc12 [Compound 28] | 40 | 0 | 40 | 30 | 10 | 80 | 0 | 20 | 60 | 60 | 20 | 0 | 0 | 0 | 30 | 70 | 0 | 0 | 0 | 0 | Kochia plant response rating (kochia (Kochia scoparia) [1]; 31 g ai/ha): 0; Wheat plant response rating ([2]; 31 g ai/ha): 0; Pigweed plant response rating ([3]; 31 g ai/ha): 10; Blackgrass plant response rating ([4]; 31 g ai/ha): 0; Barnyardgrass plant response rating ([5]; 31 g ai/ha): 0; Galium plant response rating ([6]; 31 g ai/ha): 40; Corn plant response rating (corn (Zea mays); 31 g ai/ha): 0; Foxtail, Giant plant response rating ([7]; 31 g ai/ha): 0; Ragweed plant response rating ([8]; 31 g ai/ha): 20; Ryegrass, It. plant response rating ([9]; 31 g ai/ha): 30; Plant response rating (0 to 100 scale), Kochia (kochia (Kochia scoparia) [10]; 31 g ai/ha): 0; Plant response rating (0 to 100 scale), Pigweed ([11]; 31 g ai/ha): 0; Plant response rating (0 to 100 scale), Barnyardgrass ([12]; 31 g ai/ha): 0; Plant response rating (0 to 100 scale), Foxtail, Giant ([13]; 31 g ai/ha): 0; Plant response rating (0 to 100 scale), Ragweed ([14]; 31 g ai/ha): 0; Plant response rating (0 to 100 scale), Ryegrass, It. ([15]; 31 g ai/ha): 20
3 | CCC(=O)Oc1c(C)nn(C)c(=O)c1-c1c(C)ccc2sccc12 [Compound 31] | 90 | 20 | 90 | 50 | 10 | 90 | 20 | 10 | 70 | 100 | 20 | 90 | 10 | 10 | 20 | 90 | 0 | 0 | 0 | 0 | Kochia plant response rating (kochia (Kochia scoparia) [1]; 500 g ai/ha): 100; Wheat plant response rating ([2]; 500 g ai/ha): 30; Pigweed plant response rating ([3]; 500 g ai/ha): 90; Blackgrass plant response rating ([4]; 500 g ai/ha): 60; Barnyardgrass plant response rating ([5]; 500 g ai/ha): 60; Galium plant response rating ([6]; 500 g ai/ha): 100; Corn plant response rating (corn (Zea mays); 500 g ai/ha): 40; Foxtail, Giant plant response rating ([7]; 500 g ai/ha): 80; Ragweed plant response rating ([8]; 500 g ai/ha): 80; Ryegrass, It. plant response rating ([9]; 500 g ai/ha): 100; Plant response rating (0 to 100 scale), Kochia (kochia (Kochia scoparia) [10]; 500 g ai/ha): 90; Plant response rating (0 to 100 scale), Pigweed ([11]; 500 g ai/ha): 100; Plant response rating (0 to 100 scale), Barnyardgrass ([12]; 500 g ai/ha): 90; Plant response rating (0 to 100 scale), Foxtail, Giant ([13]; 500 g ai/ha): 90; Plant response rating (0 to 100 scale), Ragweed ([14]; 500 g ai/ha): 90; Plant response rating (0 to 100 scale), Ryegrass, It. ([15]; 500 g ai/ha): 100
